# Data as given in ChEMBL document CHEMBL1151963 (J Med Chem, 2009).
# Calls of active or inactive are those of the source. The rule behind the calls is not given here.
# Experiments:
# [1] = Metabolic stability in nude mouse microsomes assessed as half life at 1 uM by HPLC-MS/MS analysis; type: ADME, Microsome
# LNCaP = experiment: Cytotoxicity against human LNCAP cells after 3 days by MTS assay; type: functional, cell-based; settings: 72 h
# [2] = biological target: T1, Serine/threonine-protein kinase mTOR (Homo sapiens, UniProt P42345); experiment: Inhibition of flag-tagged truncated human mTOR (1360-2549) expressed in HEK293 cells by DELFIA assay; type: cell-based
# [3] = Aqueous solubility at pH 3; type: physicochemical; settings: buffer
# [4] = biological target: Mitogen-activated protein kinase 14 (Homo sapiens, UniProt Q16539); experiment: Inhibition of p38alpha after 1 hr by mobility shift electrophoresis assay
# Sequence of Mitogen-activated protein kinase 14 (Q16539 whole entry): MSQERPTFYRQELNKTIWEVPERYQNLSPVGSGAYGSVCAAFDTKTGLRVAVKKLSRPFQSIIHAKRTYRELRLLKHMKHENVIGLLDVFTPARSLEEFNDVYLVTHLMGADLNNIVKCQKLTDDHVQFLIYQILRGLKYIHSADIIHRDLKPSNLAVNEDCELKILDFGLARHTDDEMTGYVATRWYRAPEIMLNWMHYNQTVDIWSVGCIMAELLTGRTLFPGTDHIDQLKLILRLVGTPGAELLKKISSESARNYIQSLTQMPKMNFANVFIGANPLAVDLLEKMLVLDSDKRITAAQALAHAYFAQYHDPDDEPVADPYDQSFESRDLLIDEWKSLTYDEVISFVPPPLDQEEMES
# [5] = biological target: MAP kinase-activated protein kinase 2 (Homo sapiens, UniProt P49137); experiment: Inhibition of MK2 after 1 hr by mobility shift electrophoresis assay
# Sequence of MAP kinase-activated protein kinase 2 (P49137 whole entry): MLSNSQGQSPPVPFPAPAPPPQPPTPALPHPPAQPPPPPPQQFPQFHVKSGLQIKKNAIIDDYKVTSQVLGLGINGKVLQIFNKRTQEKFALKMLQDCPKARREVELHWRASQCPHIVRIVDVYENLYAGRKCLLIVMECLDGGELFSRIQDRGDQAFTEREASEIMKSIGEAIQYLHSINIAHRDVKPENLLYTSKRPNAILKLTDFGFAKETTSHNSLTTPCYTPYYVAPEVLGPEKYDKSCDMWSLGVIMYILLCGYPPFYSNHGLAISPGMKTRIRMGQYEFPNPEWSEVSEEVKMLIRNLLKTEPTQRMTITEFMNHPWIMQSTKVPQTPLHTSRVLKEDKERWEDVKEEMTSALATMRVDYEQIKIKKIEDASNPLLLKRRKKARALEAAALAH
# [6] = biological target: T1, Serine/threonine-protein kinase mTOR; experiment: Inhibition of mTOR complex 2 in human U87MG cells assessed as suppression of AKT phosphorylation at S473 treated for 6 hrs by immunoblotting analysis; type: cell-based; settings: U-87MG ATCC
# [7] = biological target: Serine/threonine-protein kinase Chk1 (Homo sapiens, UniProt O14757); experiment: Inhibition of CHK1 after 1 hr by mobility shift electrophoresis assay
# [8] = biological target: Inhibitor of nuclear factor kappa-B kinase subunit alpha (Homo sapiens, UniProt O15111); experiment: Inhibition of IKKalpha after 1 hr by mobility shift electrophoresis assay
# [9] = biological target: Phosphatidylinositol 4,5-bisphosphate 3-kinase catalytic subunit gamma isoform (Homo sapiens, UniProt P48736); experiment: Inhibition of PI3Kgamma
# [10] = biological target: Ribosomal protein S6 kinase alpha-1 (Homo sapiens, UniProt Q15418); experiment: Inhibition of RSK1 after 1 hr by mobility shift electrophoresis assay
# Aurora kinase B = Aurora kinase B (Homo sapiens, UniProt Q96GD4); experiment: Inhibition of Aurora B after 1 hr by mobility shift electrophoresis assay
# Sequence of Aurora kinase B (Q96GD4 whole entry): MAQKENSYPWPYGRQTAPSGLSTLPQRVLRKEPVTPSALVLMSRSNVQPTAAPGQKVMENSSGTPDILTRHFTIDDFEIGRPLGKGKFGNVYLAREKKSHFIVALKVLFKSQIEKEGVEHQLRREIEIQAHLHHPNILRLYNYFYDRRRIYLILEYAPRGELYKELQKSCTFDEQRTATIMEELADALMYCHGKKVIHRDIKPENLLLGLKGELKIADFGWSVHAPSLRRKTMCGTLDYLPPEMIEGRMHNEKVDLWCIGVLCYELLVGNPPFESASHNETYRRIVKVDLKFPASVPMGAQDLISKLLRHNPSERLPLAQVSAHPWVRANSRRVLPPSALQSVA
# [11] = biological target: Rho-associated protein kinase 1 (Homo sapiens, UniProt Q13464); experiment: Inhibition of ROCK1 after 1 hr by mobility shift electrophoresis assay
# [12] = biological target: Tyrosine-protein kinase Lyn (Homo sapiens, UniProt P07948); experiment: Inhibition of LYN after 1 hr by mobility shift electrophoresis assay
# [13] = biological target: Mitogen-activated protein kinase kinase kinase kinase 2 (Homo sapiens, UniProt Q12851); experiment: Inhibition of GCK after 1 hr by mobility shift electrophoresis assay
# [14] = biological target: Tyrosine-protein kinase Fyn (Homo sapiens, UniProt P06241); experiment: Inhibition of FYN after 1 hr by mobility shift electrophoresis assay
# Sequence of Tyrosine-protein kinase Fyn (P06241 whole entry): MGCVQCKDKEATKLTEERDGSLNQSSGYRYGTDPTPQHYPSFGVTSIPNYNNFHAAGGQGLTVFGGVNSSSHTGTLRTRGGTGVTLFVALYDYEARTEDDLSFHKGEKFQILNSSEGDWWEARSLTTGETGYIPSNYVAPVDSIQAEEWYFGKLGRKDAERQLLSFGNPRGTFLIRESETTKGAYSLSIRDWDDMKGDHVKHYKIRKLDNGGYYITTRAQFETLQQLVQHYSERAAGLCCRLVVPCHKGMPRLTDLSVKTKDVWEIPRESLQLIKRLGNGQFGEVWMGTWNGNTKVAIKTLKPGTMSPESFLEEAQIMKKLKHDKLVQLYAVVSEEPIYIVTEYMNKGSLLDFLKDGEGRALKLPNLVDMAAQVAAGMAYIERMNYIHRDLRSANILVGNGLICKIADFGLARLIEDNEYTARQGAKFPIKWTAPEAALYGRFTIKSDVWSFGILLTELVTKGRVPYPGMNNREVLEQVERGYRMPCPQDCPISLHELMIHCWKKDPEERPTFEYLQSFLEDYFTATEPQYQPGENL
# [15] = biological target: Tyrosine-protein kinase HCK (Homo sapiens, UniProt P08631); experiment: Inhibition of HCK after 1 hr by mobility shift electrophoresis assay
# Sequence of Tyrosine-protein kinase HCK (P08631 whole entry): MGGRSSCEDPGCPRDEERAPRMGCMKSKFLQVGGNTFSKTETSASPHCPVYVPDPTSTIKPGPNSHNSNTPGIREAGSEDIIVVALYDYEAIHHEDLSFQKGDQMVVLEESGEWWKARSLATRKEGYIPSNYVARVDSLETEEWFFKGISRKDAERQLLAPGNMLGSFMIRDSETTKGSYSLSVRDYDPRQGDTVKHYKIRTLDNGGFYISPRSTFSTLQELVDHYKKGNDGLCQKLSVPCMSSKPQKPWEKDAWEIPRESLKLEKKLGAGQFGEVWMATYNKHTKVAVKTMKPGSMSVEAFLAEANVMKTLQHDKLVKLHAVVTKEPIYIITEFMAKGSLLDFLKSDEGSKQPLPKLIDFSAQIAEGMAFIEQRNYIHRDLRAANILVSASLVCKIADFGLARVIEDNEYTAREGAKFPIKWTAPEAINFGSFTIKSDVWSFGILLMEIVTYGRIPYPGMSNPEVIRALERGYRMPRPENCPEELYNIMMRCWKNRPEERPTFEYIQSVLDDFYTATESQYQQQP
# [16] = biological target: Platelet-derived growth factor receptor alpha (Homo sapiens, UniProt P16234); experiment: Inhibition of PDGFRalpha after 1 hr by mobility shift electrophoresis assay
# [17] = biological target: T1, Serine/threonine-protein kinase mTOR; experiment: Inhibition of mTOR complex 1 in human U87MG cells assessed as suppression of S6K phosphorylation at T389 treated for 6 hrs by immunoblotting analysis; type: cell-based; settings: U-87MG ATCC
# [18] = biological target: Vascular endothelial growth factor receptor 2 (Homo sapiens, UniProt P35968); experiment: Inhibition of VEGFR2 after 1 hr by mobility shift electrophoresis assay
# [19] = biological target: Protein kinase C beta type (Homo sapiens, UniProt P05771); experiment: Inhibition of PKCbeta after 1 hr by mobility shift electrophoresis assay
# Sequence of Protein kinase C beta type (P05771 whole entry): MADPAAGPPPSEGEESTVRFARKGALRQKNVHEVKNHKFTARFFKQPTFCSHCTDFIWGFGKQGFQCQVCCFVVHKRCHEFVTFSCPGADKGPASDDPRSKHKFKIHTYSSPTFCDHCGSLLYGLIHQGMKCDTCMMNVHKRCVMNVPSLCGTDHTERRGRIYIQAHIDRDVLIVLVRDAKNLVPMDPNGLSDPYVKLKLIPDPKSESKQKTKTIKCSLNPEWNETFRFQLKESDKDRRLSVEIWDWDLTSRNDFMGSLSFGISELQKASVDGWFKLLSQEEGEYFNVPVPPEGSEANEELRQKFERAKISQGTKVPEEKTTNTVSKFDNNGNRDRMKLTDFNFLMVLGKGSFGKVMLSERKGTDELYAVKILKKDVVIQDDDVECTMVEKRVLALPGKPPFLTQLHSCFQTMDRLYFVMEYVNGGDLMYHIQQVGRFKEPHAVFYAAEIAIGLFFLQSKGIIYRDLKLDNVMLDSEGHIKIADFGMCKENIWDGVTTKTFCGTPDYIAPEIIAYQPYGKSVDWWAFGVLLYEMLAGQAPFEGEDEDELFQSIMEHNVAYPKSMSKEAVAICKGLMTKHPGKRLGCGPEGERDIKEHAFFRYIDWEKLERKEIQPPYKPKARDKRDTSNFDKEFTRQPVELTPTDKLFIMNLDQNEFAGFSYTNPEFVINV
# [20] = biological target: Proto-oncogene tyrosine-protein kinase Src (Homo sapiens, UniProt P12931); experiment: Inhibition of SRC after 1 hr by mobility shift electrophoresis assay
# Sequence of Proto-oncogene tyrosine-protein kinase Src (P12931 2-536 limits assumed): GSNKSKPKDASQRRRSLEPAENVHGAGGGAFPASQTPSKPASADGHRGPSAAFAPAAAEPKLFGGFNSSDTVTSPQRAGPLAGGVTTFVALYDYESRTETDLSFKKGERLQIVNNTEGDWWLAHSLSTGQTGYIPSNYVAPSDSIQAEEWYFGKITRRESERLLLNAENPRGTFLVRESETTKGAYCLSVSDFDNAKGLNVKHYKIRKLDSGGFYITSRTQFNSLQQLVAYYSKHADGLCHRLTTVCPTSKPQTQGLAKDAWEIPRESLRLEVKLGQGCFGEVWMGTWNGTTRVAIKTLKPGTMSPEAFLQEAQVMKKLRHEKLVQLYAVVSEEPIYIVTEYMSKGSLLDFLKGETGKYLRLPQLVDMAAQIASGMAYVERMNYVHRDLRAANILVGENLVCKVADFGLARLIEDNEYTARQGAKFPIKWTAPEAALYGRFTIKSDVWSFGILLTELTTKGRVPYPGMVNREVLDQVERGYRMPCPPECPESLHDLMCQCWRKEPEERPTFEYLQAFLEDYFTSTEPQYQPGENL
# [21] = biological target: Protein kinase C alpha type (Homo sapiens, UniProt P17252); experiment: Inhibition of PKCalpha after 1 hr by mobility shift electrophoresis assay
# [22] = biological target: Mitogen-activated protein kinase 1 (Homo sapiens, UniProt P28482); experiment: Inhibition of ERK2 after 1 hr by mobility shift electrophoresis assay
# [23] = Inhibition of PIKK assessed as blockade of VP16-induced phosphorylation of p53 at S15 at 3 umol/L
# [24] = Inhibition of PKA after 1 hr by mobility shift electrophoresis assay
# [25] = Antitumor activity against human U87MG cells xenografted in BALB/c nu/nu mouse at 50 mg/kg, ip administered once daily for 5 days measured on day 7 relative to control; type: functional, U-87MG ATCC; settings: route intraperitoneal
# Mus musculus [26] = experiment: Inhibition of mTOR complex 1 in BALB/c nu/nu mouse bearing PTEN-null human PC3MM2 xenograft tumor assessed as suppression of S6K phosphorylation at T389 at 50 mg/kg, ip administered as single dose for 6 hrs; type: functional, organism-based; design: dose 50 mg/kg
# [27] = Inhibition of PIKK assessed as blockade of VP16-induced phosphorylation of ChK1 at S345 at 3 umol/L
# [28] = biological target: Cyclin-dependent kinase 1/cyclin B1 (Homo sapiens, UniProt P06493); experiment: Inhibition of CDK1/cyclinB after 1 hr by mobility shift electrophoresis assay; type: protein-complex assay
# [29] = biological target: RAC-alpha serine/threonine-protein kinase (Homo sapiens, UniProt P31749); experiment: Inhibition of PKBalpha after 1 hr by mobility shift electrophoresis assay
# Sequence of RAC-alpha serine/threonine-protein kinase (P31749 whole entry): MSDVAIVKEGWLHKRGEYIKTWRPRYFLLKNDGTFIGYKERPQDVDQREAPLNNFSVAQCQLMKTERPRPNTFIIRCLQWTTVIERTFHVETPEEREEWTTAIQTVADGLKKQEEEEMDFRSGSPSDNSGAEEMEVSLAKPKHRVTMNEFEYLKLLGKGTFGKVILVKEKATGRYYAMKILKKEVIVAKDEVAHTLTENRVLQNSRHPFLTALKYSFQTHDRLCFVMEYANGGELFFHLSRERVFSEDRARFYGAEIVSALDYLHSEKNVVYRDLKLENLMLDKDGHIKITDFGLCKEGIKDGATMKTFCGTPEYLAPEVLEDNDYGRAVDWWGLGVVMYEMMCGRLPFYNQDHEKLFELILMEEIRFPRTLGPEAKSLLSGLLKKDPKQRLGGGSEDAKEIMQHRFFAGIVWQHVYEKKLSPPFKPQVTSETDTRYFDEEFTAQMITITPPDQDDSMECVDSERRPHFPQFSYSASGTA
# [30] = biological target: Cyclin-dependent kinase 2 (Homo sapiens, UniProt P24941); experiment: Inhibition of CDK2/cyclinA after 1 hr by mobility shift electrophoresis assay
# [31] = Antitumor activity against human U87MG cells xenografted in BALB/c nu/nu mouse at 50 mg/kg, ip administered twice daily for 5 days measured on day 7 relative to control; type: functional, U-87MG ATCC; settings: route intraperitoneal
# Mus musculus [32] = experiment: Inhibition of mTOR complex 2 in BALB/c nu/nu mouse bearing PTEN-null human PC3MM2 xenograft tumor assessed as suppression of P-AKT phosphorylation at S473 at 50 mg/kg, ip administered as single dose for 4 to 6 hrs; type: functional, organism-based; design: dose 50 mg/kg
# [33] = biological target: T1, Serine/threonine-protein kinase mTOR; experiment: Inhibition of mTOR complex 1 in human PC3MM2 cells assessed as suppression of S6K phosphorylation at T389 treated for 6 hrs by immunoblotting analysis; type: cell-based
# Mus musculus [34] = experiment: Inhibition of PI3K in BALB/c nu/nu mouse bearing PTEN-null human PC3MM2 xenograft tumor assessed as suppression of AKT phosphorylation at T308 at 50 mg/kg, ip administered as single dose for 4 hrs; type: functional, organism-based; design: dose 50 mg/kg
# [35] = biological target: Casein kinase I isoform gamma-1 (Homo sapiens, UniProt Q9HCP0); experiment: Inhibition of CK1gamma1 after 1 hr by mobility shift electrophoresis assay
# [36] = biological target: Phosphatidylinositol 4,5-bisphosphate 3-kinase catalytic subunit alpha isoform (Homo sapiens, UniProt P42336); experiment: Inhibition of PI3Kalpha expressed in Escherichia coli by microtiter plate-based fluorescence polarization assay
# Sequence of Phosphatidylinositol 4,5-bisphosphate 3-kinase catalytic subunit alpha isoform (P42336 whole entry, canonical isoform): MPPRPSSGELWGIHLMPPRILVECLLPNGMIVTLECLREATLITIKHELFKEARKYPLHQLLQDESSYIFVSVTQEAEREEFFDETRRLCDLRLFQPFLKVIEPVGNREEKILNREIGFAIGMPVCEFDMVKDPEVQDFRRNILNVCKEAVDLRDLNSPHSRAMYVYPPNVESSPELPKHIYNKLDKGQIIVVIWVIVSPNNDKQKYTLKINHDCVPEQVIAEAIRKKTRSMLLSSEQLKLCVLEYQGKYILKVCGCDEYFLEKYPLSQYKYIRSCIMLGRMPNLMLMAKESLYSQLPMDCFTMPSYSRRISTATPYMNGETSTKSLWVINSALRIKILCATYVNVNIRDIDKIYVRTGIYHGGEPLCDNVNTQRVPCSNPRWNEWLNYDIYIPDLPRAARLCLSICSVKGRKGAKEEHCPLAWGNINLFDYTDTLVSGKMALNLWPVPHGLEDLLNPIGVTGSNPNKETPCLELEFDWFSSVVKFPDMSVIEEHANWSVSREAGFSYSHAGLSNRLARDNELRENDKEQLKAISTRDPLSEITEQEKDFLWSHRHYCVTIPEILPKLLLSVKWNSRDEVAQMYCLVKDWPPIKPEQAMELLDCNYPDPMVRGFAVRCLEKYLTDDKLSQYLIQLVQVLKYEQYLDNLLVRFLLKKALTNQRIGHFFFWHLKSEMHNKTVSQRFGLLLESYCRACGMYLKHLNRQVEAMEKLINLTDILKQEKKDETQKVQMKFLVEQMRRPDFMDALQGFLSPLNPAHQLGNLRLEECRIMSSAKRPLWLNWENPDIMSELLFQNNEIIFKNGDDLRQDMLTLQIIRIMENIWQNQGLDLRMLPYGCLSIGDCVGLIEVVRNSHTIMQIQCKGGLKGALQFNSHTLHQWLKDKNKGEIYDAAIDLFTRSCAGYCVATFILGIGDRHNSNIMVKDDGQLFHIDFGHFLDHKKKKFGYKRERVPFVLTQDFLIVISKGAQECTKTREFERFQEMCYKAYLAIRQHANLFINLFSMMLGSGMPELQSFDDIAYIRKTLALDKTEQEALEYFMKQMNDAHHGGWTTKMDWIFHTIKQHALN
# [37] = biological target: T1, Serine/threonine-protein kinase mTOR; experiment: Inhibition of mTOR complex 2 in human PC3MM2 cells assessed as suppression of P-AKT phosphorylation at S473 treated for 6 hrs by immunoblotting analysis; type: cell-based
# [38] = biological target: Tyrosine-protein kinase ABL1 (Homo sapiens, UniProt P00519); experiment: Inhibition of ABL1 after 1 hr by mobility shift electrophoresis assay
# Mus musculus [39] = experiment: Inhibition of mTOR complex 1 in BALB/c nu/nu mouse bearing PTEN-null human PC3MM2 xenograft tumor assessed as suppression of S6K phosphorylation at T389 at 50 mg/kg, ip administered as single dose for 4 hrs; type: functional, organism-based; design: dose 50 mg/kg
# Mus musculus [40] = experiment: Inhibition of mTOR complex 2 in BALB/c nu/nu mouse bearing PTEN-null human PC3MM2 xenograft tumor assessed as suppression of AKT phosphorylation at S473 at 50 mg/kg, ip administered as single dose for 4 hrs; type: functional, organism-based; design: dose 50 mg/kg
structure (smiles),measurement,setting,value
CNC(=O)Nc1ccc(-c2nc(N3CCOCC3)c3cnn(C4CCN(C(=O)N(C)C)CC4)c3n2)cc1,half-life at 1 µM,[1],> 30 min
same,IC50,LNCaP,197 nM
same,IC50,[2],1.1 nM
COC(=O)N1CCC(n2ncc3c(N4CCOCC4)nc(-c4ccc(NC(=O)Nc5ccc(N6CCN(C)CC6)cc5)cc4)nc32)CC1,solubility,[3],> 100 µg/mL
Oc1cccc(-c2nc(N3CCOCC3)c3cnn(C4CCN(Cc5cccnc5)CC4)c3n2)c1,half-life at 1 µM,[1],5 min
same,IC50,LNCaP,53 nM
same,IC50,[2],9.6 nM
COC(=O)Nc1ccc(-c2nc(N3CCOCC3)c3cnn(C4CCN(C(=O)OC)CC4)c3n2)cc1,IC50,[4],> 50000 nM
same,IC50,[5],> 50000 nM
same,Activity,[6],Dose-dependent effect
same,IC50,[7],> 50000 nM
same,IC50,[8],> 50000 nM
same,IC50,[9],6320 nM
same,half-life at 1 µM,[1],> 30 min
same,IC50,[10],> 50000 nM
same,IC50,Aurora kinase B,> 50000 nM
same,IC50,[11],> 50000 nM
same,IC50,[12],> 50000 nM
same,IC50,[13],> 50000 nM
same,IC50,[14],> 50000 nM
same,IC50,[15],> 50000 nM
same,IC50,[16],> 50000 nM
same,IC50,LNCaP,355 nM
same,Activity,[17],Dose-dependent effect
same,IC50,[18],> 50000 nM
same,IC50,[19],> 50000 nM
same,IC50,[20],> 50000 nM
same,IC50,[21],> 50000 nM
same,IC50,[22],> 50000 nM
same,Activity,[23],inactive
same,IC50,[24],> 50000 nM
same,T/C,[25],0.62
same,Activity,Mus musculus [26],Active
same,Activity,[27],inactive
same,IC50,[28],> 50000 nM
same,IC50,[29],> 50000 nM
same,IC50,[30],> 50000 nM
same,T/C,[31],0.14
same,IC50,[2],4.3 nM
same,Activity,Mus musculus [32],Active
same,Activity,[33],Dose-dependent effect
same,Activity,Mus musculus [34],inactive
same,IC50,[35],> 50000 nM
same,IC50,[36],1030 nM
same,Activity,[37],Dose-dependent effect
same,IC50,[38],> 50000 nM
CNC(=O)Nc1ccc(-c2nc(N3CCOCC3)c3cnn(C4CCN(C(=O)NC)CC4)c3n2)cc1,IC50,LNCaP,2570 nM
same,IC50,[2]; hek293,2 nM
CNC(=O)Nc1ccc(-c2nc(N3CCOCC3)c3cnn(C4CCN(C(C)=O)CC4)c3n2)cc1,half-life at 1 µM,[1],27 min
same,IC50,LNCaP,817 nM
same,IC50,[2]; hek293,2.1 nM
COC(=O)N1CCC(n2ncc3c(N4CCOCC4)nc(-c4ccc(NC(=O)Nc5ccncc5)cc4)nc32)CC1,half-life at 1 µM,[1],9 min
same,IC50,LNCaP,60 nM
same,IC50,[2]; hek293,0.3 nM
same,IC50,[36],18 nM
O=C(Nc1ccc(-c2nc(N3CCOCC3)c3cnn(C4CCN(Cc5cccnc5)CC4)c3n2)cc1)OCCO,half-life at 1 µM,[1],6 min
CNC(=O)Nc1ccc(-c2nc(N3CCOCC3)c3cnn(C4CCN(C(=O)OC)CC4)c3n2)cc1,Activity,Mus musculus [39],Active
same,Activity,Mus musculus [40],Active
same,T/C,[25],0.57
same,Activity,Mus musculus [34],inactive
COC(=O)N1CCC(n2ncc3c(N4CCOCC4)nc(-c4ccc(NC(=O)Nc5ccc(CO)cc5)cc4)nc32)CC1,half-life at 1 µM,[1],13 min
same,IC50,LNCaP,< 1 nM
same,IC50,[2]; hek293,0.08 nM
same,IC50,[36],6 nM
COC(=O)N1CCC(n2ncc3c(N4CCOCC4)nc(-c4ccc(NC(=O)Nc5cccnc5)cc4)nc32)CC1,half-life at 1 µM,[1],24 min
same,IC50,LNCaP,31 nM
same,IC50,[2],0.2 nM
same,IC50,[36],35 nM
